Assay results taken from ChEMBL document CHEMBL5120961, “N-Arylimidazoliums as Highly Selective Biomimetic Antimicrobial Agents” (J Med Chem, 2022).
Active and inactive are the calls of the source. The rule behind the calls is not given here.

Tests used:
[1] = test system: Staphylococcus aureus; assay: Antibacterial activity against methicillin-resistant Staphylococcus aureus ATCC 43300 assessed as inhibition of bacterial growth incubated for 16 to 18 hrs by broth microdilution method; format: functional; conditions: time 16-18 hrs
[2] = test system: Staphylococcus aureus; assay: Antibacterial activity against Staphylococcus aureus ATCC 25923 assessed as inhibition of bacterial growth incubated for 16 to 18 hrs by broth microdilution method; format: functional; conditions: time 16-18 hrs
[3] = test system: Escherichia coli; assay: Antibacterial activity against Escherichia coli ATCC 25922 assessed as inhibition of bacterial growth incubated for 16 to 18 hrs by broth microdilution method; format: functional; conditions: time 16-18 hrs
[4] = test system: Erythrocyte; assay: Hemolytic activity in rabbit erythrocytes incubated for 1 hr; format: toxicity, cell-based, Oryctolagus cuniculus
[5] = Selectivity ratio of HC5 for hemolytic activity in rabbit erythrocytes to MIC for antibacterial activity against methicillin-resistant Staphylococcus aureus ATCC 43300; format: toxicity, cell-based
[6] = test system: Enterococcus faecalis; assay: Antibacterial activity against Enterococcus faecalis ATCC 29212 assessed as inhibition of bacterial growth incubated for 16 to 18 hrs by broth microdilution method; format: functional; conditions: time 16-18 hrs
[7] = test system: Acinetobacter baumannii; assay: Antibacterial activity against Acinetobacter baumannii ATCC 19606 assessed as inhibition of bacterial growth incubated for 16 to 18 hrs by broth microdilution method; format: functional; conditions: time 16-18 hrs
[8] = test system: Pseudomonas aeruginosa; assay: Antibacterial activity against Pseudomonas aeruginosa ATCC 27853 assessed as inhibition of bacterial growth incubated for 16 to 18 hrs by broth microdilution method; format: functional; conditions: time 16-18 hrs
[9] = test system: Klebsiella pneumoniae; assay: Antibacterial activity against Klebsiella pneumoniae CMCC(B) 46117 assessed as inhibition of bacterial growth incubated for 16 to 18 hrs by broth microdilution method; format: functional; conditions: time 16-18 hrs
[10] = test system: Staphylococcus aureus; assay: Bactericidal activity against Staphylococcus aureus ATCC 25923 assessed as eradication of bacterial colonies at 4XMIC measured after 15 mins by time-kill kinetics analysis; format: functional, organism-based
[11] = test system: Escherichia coli; assay: Bactericidal activity against Escherichia coli ATCC 25922 assessed as eradication of bacterial colonies at 16XMIC measured after 30 mins time-kill kinetics analysis; format: functional, organism-based
[12] = Increase in intracellular ROS level in Staphylococcus aureus ATCC 25923 at 4XMIC measured after 10 mins by DCFH-DA staining based fluorescence analysis relative to control; format: functional
[13] = Increase in intracellular ROS level in Escherichia coli ATCC 25922 at 4XMIC measured after 10 mins by DCFH-DA staining based fluorescence analysis relative to control; format: functional
[14] = test system: Staphylococcus aureus; assay: Antibacterial activity against Staphylococcus aureus ATCC 25923 assessed as inhibition of bacterial growth incubated for 16 to 18 hrs in presence of ROS scavenger, NAC by broth microdilution method; format: functional; conditions: time 16-18 hrs
[15] = test system: Escherichia coli; assay: Antibacterial activity against Escherichia coli ATCC 25922 assessed as inhibition of bacterial growth incubated for 16 to 18 hrs in presence of ROS scavenger, NAC by broth microdilution method; format: functional; conditions: time 16-18 hrs
[16] = test system: Staphylococcus aureus; assay: Antibacterial activity against methicillin-resistant Staphylococcus aureus ATCC 43300 assessed as inhibition of bacterial growth measured after 10 passages by broth microdilution method; format: functional, organism-based
[17] = test system: Staphylococcus aureus; assay: Inhibition of biofilm formation in methicillin-resistant Staphylococcus aureus ATCC 43300 incubated for 24 hrs under stationary conditions by crystal violet staining based analysis; format: functional, organism-based
[18] = test system: Staphylococcus aureus; assay: Inhibition of biofilm formation in methicillin-resistant Staphylococcus aureus ATCC 43300 at MIC incubated for 24 hrs under stationary conditions by crystal violet staining based analysis; format: functional
[19] = test system: Staphylococcus aureus; assay: Disruption of established biofilm in methicillin-resistant Staphylococcus aureus ATCC 43300 assessed as reduction of relative biofilm mass incubated for 24 hrs by crystal violet staining based analysis; format: functional, organism-based; conditions: DDE = dose-dependent effect
[20] = test system: Staphylococcus aureus; assay: Disruption of established biofilm in methicillin-resistant Staphylococcus aureus ATCC 43300 assessed as reduction of relative biofilm mass at 64XMIC incubated for 24 hrs by crystal violet staining based analysis; format: functional
[21] = Cytotoxicity against human HEK293 cells assessed as reduction of cell viability incubated for 48 hrs by MTT assay; format: toxicity, cell-based
[22] = Half-life in Sprague-Dawley rat at 8 mg/kg, iv by LC-MS analysis; format: ADME, organism-based; conditions: in vivo
[23] = AUC (0 to infinity) in Sprague-Dawley rat at 8 mg/kg, iv by LC-MS analysis; format: ADME, organism-based; parameters: time infinity, dose 8 mg/kg, route iv; conditions: in vivo
[24] = Acute toxicity in BALB/c mouse assessed as lethargy at >12 mg/kg, iv; format: organism-based; conditions: in vivo
[25] = Acute toxicity in BALB/c mouse assessed as clonic convulsion at >12 mg/kg, iv; format: organism-based; conditions: in vivo
[26] = Acute toxicity in BALB/c mouse assessed as anorexia at >12 mg/kg, iv; format: organism-based; conditions: in vivo
[27] = Acute toxicity in BALB/c mouse assessed as ruffled fur at >12 mg/kg, iv; format: organism-based; conditions: in vivo
[28] = Acute toxicity in BALB/c mouse assessed as animal's death at >12 mg/kg, iv; format: organism-based; conditions: in vivo
[29] = Subacute toxicity in BALB/c mouse assessed as animal's death at 4 to 8 mg/kg, iv administered everyday for 7 days; format: organism-based; conditions: in vivo, 168 h, dose 4-8 mg/kg, time 7 day
[30] = Subacute toxicity in BALB/c mouse assessed as animals abnormal behaviour at 4 to 8 mg/kg, iv administered everyday for 7 days; format: organism-based; conditions: in vivo, 168 h, dose 4-8 mg/kg, time 7 day
[31] = Subacute toxicity in BALB/c mouse assessed as histopathological changes of heart at 4 to 8 mg/kg, iv administered for 7 days and measured on day 14 by hematoxyin-eosin staining based analysis; format: organism-based; conditions: in vivo, 336 h, dose 4-8 mg/kg, time 14 day
[32] = Subacute toxicity in BALB/c mouse assessed as histopathological changes of liver at 4 to 8 mg/kg, iv administered for 7 days and measured on day 14 by hematoxyin-eosin staining based analysis; format: organism-based; conditions: in vivo, 336 h, dose 4-8 mg/kg, time 14 day
[33] = Subacute toxicity in BALB/c mouse assessed as histopathological changes of spleen at 4 to 8 mg/kg, iv administered for 7 days and measured on day 14 by hematoxyin-eosin staining based analysis; format: organism-based; conditions: in vivo, 336 h, dose 4-8 mg/kg, time 14 day
[34] = Subacute toxicity in BALB/c mouse assessed as histopathological changes of lungs at 4 to 8 mg/kg, iv administered for 7 days and measured on day 14 by hematoxyin-eosin staining based analysis; format: organism-based; conditions: in vivo, 336 h, dose 4-8 mg/kg, time 14 day
[35] = Subacute toxicity in BALB/c mouse assessed as histopathological changes of kidney at 4 to 8 mg/kg, iv administered for 7 days and measured on day 14 by hematoxyin-eosin staining based analysis; format: organism-based; conditions: in vivo, 336 h, dose 4-8 mg/kg, time 14 day
[36] = Tmax in Sprague-Dawley rat at 8 mg/kg, iv by LC-MS analysis; format: ADME, organism-based; conditions: in vivo
[37] = MRT (0 to infinity) in Sprague-Dawley rat at 8 mg/kg, iv by LC-MS analysis; format: ADME, organism-based; conditions: in vivo
[38] = Cmax in Sprague-Dawley rat at 8 mg/kg, iv by LC-MS analysis; format: ADME, organism-based; parameters: dose 8 mg/kg, route iv; conditions: in vivo
[39] = Mean clearance rate, Clz in Sprague-Dawley rat at 8 mg/kg, iv by LC-MS analysis; format: ADME, organism-based; conditions: in vivo
[40] = test system: Staphylococcus aureus; assay: Antibacterial activity against methicillin-resistant Staphylococcus aureus ATCC 43300 infected in BALB/c mouse assessed as increase in animal's survival rate at 4 mg/kg, iv administered at 1, 6, 25 and 30 hrs post-infection and measured for 7 day post-infection; format: functional, organism-based
[41] = test system: Staphylococcus aureus; assay: Antibacterial activity against methicillin-resistant Staphylococcus aureus ATCC 43300 infected in BALB/c mouse assessed as reduction in bacterial burden in lungs at 4 mg/kg, iv administered at 1, 6, 25 and 30 hrs post-infection and measured on day 7 post-infection by colony forming unit assay; format: functional, organism-based; conditions: time 7.0 day
[42] = test system: Staphylococcus aureus; assay: Antibacterial activity against methicillin-resistant Staphylococcus aureus ATCC 43300 infected in BALB/c mouse assessed as reduction in TNF-alpha content in lungs at 4 mg/kg, iv administered at 1, 6, 25 and 30 hrs post-infection and measured on day 7 post-infection by ELISA; format: functional, organism-based; conditions: time 7.0 day
[43] = test system: Staphylococcus aureus; assay: Antibacterial activity against methicillin-resistant Staphylococcus aureus ATCC 43300 infected in BALB/c mouse assessed as increase in IL-10 content in lungs at 4 mg/kg, iv administered at 1, 6, 25 and 30 hrs post-infection and measured on day 7 post-infection by ELISA; format: functional, organism-based; conditions: time 7.0 day
[44] = test system: Staphylococcus aureus; assay: Antibacterial activity against methicillin-resistant Staphylococcus aureus ATCC 43300 infected in BALB/c mouse assessed as reduction in MPO content in lungs at 4 mg/kg, iv administered at 1, 6, 25 and 30 hrs post-infection and measured on day 7 post-infection by ELISA; format: functional, organism-based; conditions: time 7.0 day
[45] = test system: Staphylococcus aureus; assay: Antibacterial activity against methicillin-resistant Staphylococcus aureus ATCC 43300 infected in BALB/c mouse assessed as reduction of NF-kappaB p65 expression in lungs at 4 mg/kg, iv administered at 1, 6, 25 and 30 hrs post-infection and measured on day 7 post-infection by western blot analysis; format: functional, organism-based; conditions: time 7.0 day
[46] = test system: Staphylococcus aureus; assay: Antibacterial activity against methicillin-resistant Staphylococcus aureus ATCC 43300 infected in BALB/c mouse assessed as reduction of histopathological changes of pulmonary tissue at 4 mg/kg, iv administered at 1, 6, 25 and 30 hrs post-infection and measured on day 7 post-infection by hematoxylin-eosin staining based analysis; format: functional, organism-based; conditions: time 7.0 day

CCCCCC[n+]1ccn(-c2ccc(C#Cc3ccc(-n4cc[n+](CCCCCC)c4)cc3)cc2)c1.[Br-].[Br-]
MIC [1]: 0.5 µg/mL
MIC [2]: 0.25 µg/mL
MIC [3]: 1 µg/mL
HC5 [4]: 800 µg/mL
selectivity ratio [5]: 1600
MIC [6]: 8 µg/mL
MIC [7]: 32 µg/mL
MIC [8]: 32 µg/mL
MIC [9]: 32 µg/mL
Activity [10]: Active
Activity [11]: Active
fold change (FC) [12]: 2
fold change (FC) [13]: 20
MIC [14]: 64 µg/mL
MIC [15]: 32 µg/mL
Activity [16]: Active
inhibition [17]: Active
inhibition (INH) [18]: 100%
Activity [19]: Dde
inhibition (INH) [20]: 69%
CC50 at 48 h [21]: 224 µg/mL
half-life [22]: 51.4 min
AUC(0-inf) [23]: 5120 ng·h/mL
Activity [24]: Non-Toxic
Activity [25]: Non-Toxic
Activity [26]: Non-Toxic
Activity [27]: Non-Toxic
Activity [28]: Non-Toxic
Activity [29]: Non-Toxic
Activity [30]: Non-Toxic
Activity [31]: Non-Toxic
Activity [32]: Non-Toxic
Activity [33]: Non-Toxic
Activity [34]: Non-Toxic
Activity [35]: Non-Toxic
Tmax [36]: 4.98 min
MRT inf [37]: 32.5 min
Cmax [38]: 12000 ng/mL
clearance [39]: 27.2 mL/min/kg
Activity [40]: Active
Activity [41]: Active
Activity [42]: Active
Activity [43]: Active
Activity [44]: Active
Activity [45]: Active
Activity [46]: Active
